Reference: paper PMC8151276, “An Integrated Approach toward NanoBRET Tracers for Analysis of GPCR Ligand Engagement” (Molecules, 2021)

Biological target: T1, MC5R (Homo sapiens, UniProt P33032)
T1 construct: purchased Promega (in-house HiBiT-GPCR construct library, NanoBRET)
Test: NanoBRET screen HiBiT-MC5R in HEK293
Format: binding
Experimental: Each tracer candidate was screened across the entire library of HiBiT-GPCR constructs using NanoBRET as the detection modality. As depicted in Figure 4A, the specificity of interactions was evaluated through decrease in BRET due to competitive displacement of a bound tracer by excess parental compound. Each tracer was analyzed for binding to each HiBiT-GPCR fusion in the absence and in the presence of competing parental compound. Briefly, HEK293 cells were transfected with HiBiT-GPCR constructs diluted into promoterless DNA to reduce expression and maximize translocation to the cell surface. Each tracer candidate was then screened at concentrations of 1 μM and 0.1 μM across cells expressing these fusions. Cells were treated for 1.5 h with tracer either alone or in the presence of 20 μM competing parental compound (i.e., control). BRET was measured upon addition of purified LgBiT and subsequent complementation with HiBiT genetically fused to a GPCR. The specificity of interactions was assessed through a decrease in BRET signal due to competitive displacement of the bound tracer. To further gauge the robustness of these interactions, the fold response over the control (i.e., BRETtracer/BRETcontrol) was calculated. We chose a 1.5-fold response, which translates to ≥7-fold signal over noise as the minimal threshold required to score an interaction as positive.
HiBiT-GPCR DNA constructs were diluted in 10 mM Tris pH 8 to a final concentration of 0.01 μg/μL, arrayed in 96-well plates and stored at −20 °C. For transfection, HEK293 cells were suspended in Opti-MEM (without phenol red) supplemented with 2% fetal bovine serum (Seradigm) and 100 units/mL penicillin–streptomycin (Gibco) at a final concentration of 220,000 cells/mL and dispensed into white 96-well plates at 90 μL/well. Subsequent transfections and screens were carried using an Agilent Bravo Automated Liquid Handling Platform. First, the 96-well HiBiT DNA arrays were diluted 25-fold in Opti-MEM (without serum or phenol red) to a final concentration of 0.0004 μg/μL and 20 μL of the diluted DNAs were transferred into new 96-well plates. Next, promoterless carrier DNA (1 μg/μL) was diluted 25-fold (0.04 μg/μL) and then dispensed into the diluted arrays at 20 μL/well. Following brief mixing, Viafect transfection reagent (Promega) diluted 16-fold into Opti-MEM was dispensed into the plates at 40 μL/well. After mixing by pipetting, plates were incubated for 10 min on the pipetting station deck. The DNA-transfection reagent complexes were then added to plates containing cells. To facilitate the screen, 10 μL of DNA-transfection reagent complexes were added in duplicates to the top 4 and bottom 4 rows, resulting in two identical 48-well arrays per plate. Plates with transfected cells were incubated for 18–20 h at 37 °C/5% CO2. A screen of each tracer across the entire library using two different concentrations requires duplicate plates of transfected cells. Depending on the number of tracers being screened, transfections can be scaled up using the same ratios. The next day, for each tracer, four 20× screening solutions in tracer dilution buffer (Promega) were prepared: two duplicates at final concentration of 20 μM and two duplicates at a final concentration of 2 μM. […] The four resulting solutions were diluted 4-fold in Opti-MEM without serum or phenol red to generate 5× solutions (5 µM and 0.5 µM tracer +/− 100 μM competing compound). To screen the library, a BioTek MultiFlo FX liquid dispenser was used to dispense 22.5 µL of tracer solution to the top 4 rows and 22.5 µL tracer + competing compound solution to the 4 bottom rows. Plates were briefly mixed on an orbital shaker and incubated for 1.5 h at room temperature. […] Plates were briefly mixed on an orbital shaker and incubated for 15 min to allow complementation.

T1 sequence (P33032 whole entry): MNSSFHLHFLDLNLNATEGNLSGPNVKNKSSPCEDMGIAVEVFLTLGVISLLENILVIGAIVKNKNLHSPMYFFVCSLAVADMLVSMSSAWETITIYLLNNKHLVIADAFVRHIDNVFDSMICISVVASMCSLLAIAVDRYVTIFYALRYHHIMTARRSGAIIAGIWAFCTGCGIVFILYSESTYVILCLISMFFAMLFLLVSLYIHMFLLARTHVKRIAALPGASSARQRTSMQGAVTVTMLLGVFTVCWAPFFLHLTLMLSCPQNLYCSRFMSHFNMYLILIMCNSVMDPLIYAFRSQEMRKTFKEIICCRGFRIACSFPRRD

Structure (SMILES) | NanoBRET Fold Response (MC5R, tracer 0.1μM) | NanoBRET Fold Response (MC5R, tracer 1μM) | other results
CCOC(=O)c1cc(C#N)c(N2CCC(C(=O)NS(=O)(=O)Cc3ccccc3/C=C/C(=O)NCCNC(=O)CCc3ccc4n3[B-](F)(F)[N+]3=C(c5ccc[nH]5)C=CC3=C4)CC2)nc1C [AZD1283-1-NB590] | – | – | NanoBRET Fold Response (MC5R, 1μM): 0.99
N#CN=C(NCCCOc1cccc(CN2CCCCC2)c1)NCCNC(=O)CCOCCOCCOCCOCCNC(=O)CCc1ccc2n1[B-](F)(F)[N+]1=C(c3ccc[nH]3)C=CC1=C2 [Aminopotentidine-2-NB590] | 1.01 | 0.94 | –
CN(C)CCC=C1c2ccccc2CCc2ccc(C(=O)NCCNC(=O)CCOCCOCCOCCOCCNC(=O)CCc3ccc4n3[B-](F)(F)[N+]3=C(c5ccc[nH]5)C=CC3=C4)cc21 [Amitriptyline-b-2-NB590] | – | – | NanoBRET Fold Response (tracer at 0.1μM): 1.02; NanoBRET Fold Response (tracer at 1μM): 1.00
COc1ccc2c(n1)c(CCNC(C)=O)cn2CCNC(=O)CCc1ccc2n1[B-](F)(F)[N+]1=C(c3ccc[nH]3)C=CC1=C2 [Azamelatonin-1-NB590] | – | – | NanoBRET Fold Response (0.1μM tracer): 1.01; NanoBRET Fold Response (1μM tracer): 1.04
COc1ccc2[nH]c(-c3ccc(CNC(=O)CCOCCOCCOCCOCCNC(=O)CCc4ccc5n4[B-](F)(F)[N+]4=C(c6ccc[nH]6)C=CC4=C5)cc3)c(CCNC(C)=O)c2n1 [AzomelatoninICO9-2-NB590] | – | – | NanoBRET Fold Response (0.1μM tracer): 0.94; NanoBRET Fold Response (1μM tracer): 0.97
O=C(CCOCCOCCOCCOCCNC(=O)CCc1ccc2n1[B-](F)(F)[N+]1=C(c3ccc[nH]3)C=CC1=C2)NCCCN1CCN(C2=Nc3cc(Cl)ccc3Nc3ccccc32)CC1 [Clozapine-a-2-NB590] | – | – | NanoBRET Fold Response (MC5R, 0.1μM tracer): 1.04
CN1CCN(C2=Nc3cc(Cl)ccc3Nc3ccc(CNC(=O)CCOCCOCCOCCOCCNC(=O)CCc4ccc5n4[B-](F)(F)[N+]4=C(c6ccc[nH]6)C=CC4=C5)cc32)CC1 [Clozapine-b-2-NB590] | – | – | NanoBRET Fold Response (MC5R, 0.1μM tracer): 1.05; NanoBRET Fold Response (MC5R, 1μM tracer): 1.04
CN1CCN(C2=Nc3cc(Cl)ccc3N(CC(=O)NCCOCCOCCOCCOCCNC(=O)CCc3ccc4n3[B-](F)(F)[N+]3=C(c5ccc[nH]5)C=CC3=C4)c3ccccc32)CC1 [Clozapine-c-2-NB590] | – | – | NanoBRET Fold Response (MC5R, 0.1μM tracer): 1.01; NanoBRET Fold Response (MC5R, 1μM tracer): 1.06
O=C(CCOCCOCCOCCOCCNC(=O)CCc1ccc2n1[B-](F)(F)[N+]1=C(c3ccc[nH]3)C=CC1=C2)NCCCN1CCN(C2=Nc3ccccc3Oc3ccc(Cl)cc32)CC1 [Loxapine-a-2-NB590] | 1.04 | – | –
COc1ccccc1N1CCN(CCCCN2C(=O)c3ccc(CNC(=O)CCOCCOCCOCCOCCNC(=O)CCc4ccc5n4[B-](F)(F)[N+]4=C(c6ccc[nH]6)C=CC4=C5)cc3C2=O)CC1 [NAN-190-2-NB590] | 0.98 | 1.01 | –
COc1ccccc1N1CCN(CCCCN2C(=O)c3ccc(CNC(=O)CCOCCNC(=O)c4ccc(CNC(=O)CCc5ccc6n5[B-](F)(F)[N+]5=C(c7ccc[nH]7)C=CC5=C6)cc4)cc3C2=O)CC1 [NAN-190-3-NB590] | 0.97 | 0.96 | –
O=C(CCc1ccc2n1[B-](F)(F)[N+]1=C(c3ccc[nH]3)C=CC1=C2)NCc1ccc(C(=O)NCCOCCC(=O)N[C@@H]2CC[C@@]3(O)[C@H]4Cc5ccc(O)c6c5[C@@]3(CCN4CC3CC3)[C@H]2O6)cc1 [Naltrexone-3-NB590] | – | 1.04 | –
Cc1cc2c(s1)Nc1ccccc1N=C2N1CCN(CCCNC(=O)CCOCCOCCOCCOCCNC(=O)CCc2ccc3n2[B-](F)(F)[N+]2=C(c4ccc[nH]4)C=CC2=C3)CC1 [Olanzapine-a-2-NB590] | 0.99 | 1.04 | –
O=C(CCc1ccc2n1[B-](F)(F)[N+]1=C(c3ccc[nH]3)C=CC1=C2)NCc1ccc(C(=O)NCCOCCOCCNCC(O)COc2cccc3ccccc23)cc1 (stereo not drawn) [Propranolol-3-NB590] | – | – | NanoBRET Fold Response (MC5R, 0.1μM): 1.00; NanoBRET Fold Response (MC5R, 1μM): 0.98
O=C(CCc1ccc2n1[B-](F)(F)[N+]1=C(c3ccc[nH]3)C=CC1=C2)NCCOCCOCCNC(=O)OCCOCCN1CCN(C2=Nc3ccccc3Sc3ccccc32)CC1 [Quetiapine-a-2-NB590] | 0.97 | 1.09 | –
Cc1nc2n(c(=O)c1CCN1CCC(c3noc4cc(F)ccc34)CC1)CCCC2OC(=O)NCCOCCOCCOCCOCCNC(=O)CCc1ccc2n1[B-](F)(F)[N+]1=C(c3ccc[nH]3)C=CC1=C2 (stereo not drawn) [Risperidone-2-NB590] | 1.02 | 1.02 | –
CC(C)N(CC[C@H](c1ccccc1)c1cc(CCNC(=O)CCOCCOCCOCCOCCNC(=O)CCc2ccc3n2[B-](F)(F)[N+]2=C(c4ccc[nH]4)C=CC2=C3)ccc1O)C(C)C [Tolterodine-2-NB590] | – | 0.91 | –
CC(C)N(CC[C@H](c1ccccc1)c1cc(CCNC(=O)c2ccc(CNC(=O)CCc3ccc4n3[B-](F)(F)[N+]3=C(c5ccc[nH]5)C=CC3=C4)cc2)ccc1O)C(C)C [Tolterodine-BZ-NB590] | 1.02 | 1.02 | –
CCCn1c(=O)c2[nH]c(-c3ccc(OCC(=O)NCCNC(=O)CCOCCNC(=O)c4ccc(CNC(=O)CCc5ccc6n5[B-](F)(F)[N+]5=C(c7ccc[nH]7)C=CC5=C6)cc4)cc3)nc2n(CCC)c1=O [XAC-3-NB590] | 1.02 | 0.98 | –
